{
  "source": "paper PMC2001498",
  "about": "“Effects of transplantation and resection of a radiation-induced rat insulinoma on glucose homeostasis and the endocrine pancreas” (British Journal of Cancer, 1986)",
  "test_system": "pancreatic B cell function",
  "assay": "Plasma insulin response to intraperitoneal arginine after tumour resection",
  "settings": "plasma insulin at 0, 30 and 60 min, groups of 6 rats",
  "note": "Counter-ions that a name gives are not always drawn.",
  "data": [
    {"smiles": "N=C(N)NCCC[C@H](N)C(=O)O", "note": "[arginine, arginine hydrochloride]", "values": [
      {"measurement": "plasma insulin response to arginine, 1 day after tumour resection", "setting": "arginine hydrochloride 2 g kg-1 i.p. in 0.9% NaCl, ex-tumour bearing rats 1 day after resection", "value": "failed to evoke a plasma insulin response"},
      {"measurement": "insulin response to arginine, 12 days after tumour resection", "setting": "arginine hydrochloride 2 g kg-1 i.p., ex-tumour bearing rats 12 days after resection", "value": "impaired"}
    ]}
  ]
}
